# Assay results: patent US20100267561A1, “HERBICIDAL PYRIDAZINONE DERIVATIVES” (priority 2007, published 2010)
# How the values were obtained:
# Format in all cases: in vivo
# [1] = tested on: Italian ryegrass (Lolium multiflorum); assay: Test B pre-/postemergence plant response; settings: for Ryegrass, Italian plant response rating: 8 g ai/ha
# Outline: (§1)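 Visual scoring from 0 (no effect) to 100 (complete control) against untreated controls was done 13 to 15 days after greenhouse treatment. Chemicals were formulated in a surfactant-containing non-phytotoxic solvent and applied to soil preemergence or to 1- to 4-leaf (2-18 cm) plants postemergence.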
# [2] = tested on: Russian thistle (Salsola iberica); assay: Test B pre-/postemergence plant response; settings: Preemergence
# Outline: as §1
# [3] = tested on: bermudagrass (Cynodon dactylon); assay: Test B pre-/postemergence plant response; settings: for Bermudagrass plant response rating: 8 g ai/ha
# Outline: as §1
# [4] = tested on: cocklebur (Xanthium strumarium); assay: Test B pre-/postemergence plant response; settings: for Cocklebur plant response rating: 8 g ai/ha
# Outline: as §1
# [5] = tested on: eastern black (E.B.) nightshade (Solanum ptycanthum); assay: Test B pre-/postemergence plant response; settings: Preemergence
# Outline: as §1
# [6] = tested on: goosegrass (Eleusine indica); assay: Test B pre-/postemergence plant response; settings: for Goosegrass plant response rating: 8 g ai/ha
# Outline: as §1
# [7] = tested on: green foxtail (Setaria viridis); assay: Test B pre-/postemergence plant response; settings: for Foxtail, Green plant response rating: 8 g ai/ha
# Outline: as §1
# [8] = tested on: johnsongrass (Sorghum halepense); assay: Test B pre-/postemergence plant response; settings: for Johnsongrass plant response rating: 8 g ai/ha
# Outline: as §1
# [9] = tested on: large crabgrass (Digitaria sanguinalis); assay: Test B pre-/postemergence plant response; settings: for Crabgrass, Large plant response rating: 8 g ai/ha
# Outline: as §1
# [10] = tested on: morningglory (Ipomoea coccinea); assay: Test B pre-/postemergence plant response; settings: for Morningglory plant response rating: 8 g ai/ha
# Outline: as §1
# soybean (Glycine max) = assay: Test B pre-/postemergence plant response; settings: for Soybean plant response rating: 8 g ai/ha
# Outline: as §1
# [11] = tested on: surinam grass (Brachiaria decumbens); assay: Test B pre-/postemergence plant response; settings: for Surinam Grass plant response rating: 8 g ai/ha
# Outline: as §1
# [12] = tested on: wheat (Triticum aestivum); assay: Test B pre-/postemergence plant response; settings: for Wheat plant response rating: 8 g ai/ha
# Outline: as §1
# [13] = tested on: chickweed (Stellaria media); assay: Test B postemergence plant response; settings: for Plant response rating, Chickweed: Postemergence
# Outline: (§2)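 Visual injury ratings on a 0–100 scale, where 100 means complete control, were made 13 to 15 days after postemergence treatment of greenhouse-grown plants at the 1- to 4-leaf stage.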
# [14] = tested on: windgrass (Apera spica-venti); assay: Test B postemergence plant response; settings: for Plant response rating, Windgrass: Postemergence
# Outline: as §2
# [15] = tested on: winter barley (Hordeum vulgare); assay: Test B postemergence plant response; settings: for Plant response rating, Barley: Postemergence, scale 0 to 100, 0 no effect, 100 complete control
# Outline: as §2
# [16] = Postemergence, 16 g ai/ha, scale 0 to 100
# [17] = Postemergence, 31 g ai/ha, scale 0 to 100, 0 no effect, 100 complete control
# [18] = Postemergence, 62 g ai/ha, scale 0 to 100, 0 no effect, 100 complete control
# [19] = Preemergence, 16 g ai/ha, scale 0 to 100 (0 no effect, 100 complete control)
# [20] = Preemergence, 31 g ai/ha, 0 to 100 scale, 0 no effect, 100 complete control
# [21] = Preemergence, 62 g ai/ha, scale 0 to 100
# [22] = 16 g ai/ha, scale 0 to 100 (0 no effect, 100 complete control)
# [23] = 31 g ai/ha, 0 to 100 scale, 0 no effect, 100 complete control
# [24] = 8 g ai/ha, postemergence, 0-100 scale
# [25] = 62 g ai/ha, scale 0 to 100, 0 no effect, 100 complete control
structure (smiles),measurement,setting,value
Cc1cc(-c2ccc(Cl)cc2)nn1-c1c(OC(=O)c2ccccc2Cl)cnn(C)c1=O [Compound 38],"Ryegrass, Italian plant response rating","[1]; postemergence, 0-100 scale",10
same,"Plant response rating, Ryegrass, Italian",[1]; [16],85
same,"Plant response rating, Ryegrass, Italian",[1]; [17],85
same,"Plant response rating, Ryegrass, Italian",[1]; [18],98
same,"Plant response rating, Ryegrass, Italian",[1]; [19],80
same,"Plant response rating, Ryegrass, Italian",[1]; [20],95
same,"Plant response rating, Ryegrass, Italian",[1]; [21],100
same,"Ryegrass, Italian plant response rating","[1]; Preemergence, scale 0 to 100",30
same,"Plant response rating, Russian Thistle",[2]; [22],0
same,"Plant response rating, Russian Thistle",[2]; [23],0
same,"Plant response rating, Russian Thistle","[2]; 62 g ai/ha, scale 0 to 100",0
same,Russian Thistle plant response rating,"[2]; 8 g ai/ha, scale 0 to 100",0
same,Bermudagrass plant response rating,"[3]; postemergence, 0-100 scale",40
same,"Plant response rating, Bermudagrass",[3]; [16],85
same,"Plant response rating, Bermudagrass",[3]; [17],100
same,"Plant response rating, Bermudagrass",[3]; [18],100
same,Bermudagrass plant response rating,"[3]; Preemergence, scale 0 to 100 (0 no effect, 100 complete control)",60
same,"Plant response rating, Bermudagrass",[3]; [19],100
same,"Plant response rating, Bermudagrass",[3]; [20],100
same,"Plant response rating, Bermudagrass",[3]; [21],100
same,Cocklebur plant response rating,"[4]; postemergence, 0-100 scale",0
same,"Plant response rating, Cocklebur",[4]; [16],0
same,"Plant response rating, Cocklebur",[4]; [17],0
same,"Plant response rating, Cocklebur",[4]; [18],0
same,"Plant response rating, Cocklebur",[4]; [19],0
same,"Plant response rating, Cocklebur",[4]; [20],0
same,"Plant response rating, Cocklebur",[4]; [21],0
same,Cocklebur plant response rating,"[4]; Preemergence, scale 0 to 100",0
same,"Plant response rating, Nightshade, E. B.",[5]; [22],0
same,"Plant response rating, Nightshade, E. B.",[5]; [23],0
same,"Plant response rating, Nightshade, E. B.","[5]; 62 g ai/ha, scale 0 to 100",0
same,"Nightshade, E. B. plant response rating","[5]; 8 g ai/ha, scale 0 to 100",0
same,Goosegrass plant response rating,"[6]; postemergence, 0-100 scale",100
same,"Plant response rating, Goosegrass",[6]; [16],100
same,"Plant response rating, Goosegrass",[6]; [17],100
same,"Plant response rating, Goosegrass",[6]; [18],100
same,"Plant response rating, Goosegrass",[6]; [19],85
same,"Plant response rating, Goosegrass",[6]; [20],95
same,"Plant response rating, Goosegrass",[6]; [21],95
same,Goosegrass plant response rating,"[6]; Preemergence, scale 0 to 100",45
same,"Foxtail, Green plant response rating","[7]; postemergence, 0-100 scale",30
same,"Plant response rating, Foxtail, Green",[7]; [16],75
same,"Plant response rating, Foxtail, Green",[7]; [17],80
same,"Plant response rating, Foxtail, Green",[7]; [18],98
same,"Plant response rating, Foxtail, Green",[7]; [19],100
same,"Plant response rating, Foxtail, Green",[7]; [20],100
same,"Plant response rating, Foxtail, Green",[7]; [21],100
same,"Foxtail, Green plant response rating","[7]; Preemergence, scale 0 to 100",30
same,Johnsongrass plant response rating,"[8]; postemergence, 0-100 scale",60
same,"Plant response rating, Johnsongrass",[8]; [16],65
same,"Plant response rating, Johnsongrass",[8]; [17],90
same,"Plant response rating, Johnsongrass",[8]; [18],100
same,"Plant response rating, Johnsongrass",[8]; [20],70
same,"Plant response rating, Johnsongrass",[8]; [21],80
same,Johnsongrass plant response rating,"[8]; Preemergence, scale 0 to 100",0
same,"Crabgrass, Large plant response rating","[9]; postemergence, 0-100 scale",70
same,"Plant response rating, Crabgrass, Large",[9]; [16],70
same,"Plant response rating, Crabgrass, Large",[9]; [17],90
same,"Plant response rating, Crabgrass, Large",[9]; [18],100
same,"Plant response rating, Crabgrass, Large",[9]; [19],98
same,"Plant response rating, Crabgrass, Large",[9]; [20],100
same,"Plant response rating, Crabgrass, Large",[9]; [21],100
same,"Crabgrass, Large plant response rating","[9]; Preemergence, scale 0 to 100",45
same,Morningglory plant response rating,"[10]; postemergence, 0-100 scale",0
same,"Plant response rating, Morningglory",[10]; [16],0
same,"Plant response rating, Morningglory",[10]; [17],0
same,"Plant response rating, Morningglory",[10]; [18],0
same,"Plant response rating, Morningglory",[10]; [19],0
same,"Plant response rating, Morningglory",[10]; [20],0
same,"Plant response rating, Morningglory",[10]; [21],0
same,Morningglory plant response rating,"[10]; Preemergence, scale 0 to 100",0
same,Soybean plant response rating,"soybean (Glycine max); postemergence, 0-100 scale",0
same,"Plant response rating, Soybean",soybean (Glycine max); [16],0
same,"Plant response rating, Soybean",soybean (Glycine max); [18],0
same,"Plant response rating, Soybean",soybean (Glycine max); [19],0
same,"Plant response rating, Soybean",soybean (Glycine max); [20],0
same,"Plant response rating, Soybean",soybean (Glycine max); [21],0
same,Soybean plant response rating,"soybean (Glycine max); Preemergence, scale 0 to 100",0
same,Surinam Grass plant response rating,"[11]; postemergence, 0-100 scale",90
same,"Plant response rating, Surinam Grass",[11]; [16],90
same,"Plant response rating, Surinam Grass",[11]; [18],100
same,"Plant response rating, Surinam Grass",[11]; [19],90
same,"Plant response rating, Surinam Grass",[11]; [20],100
same,"Plant response rating, Surinam Grass",[11]; [21],100
same,Surinam Grass plant response rating,"[11]; Preemergence, scale 0 to 100",90
same,Wheat plant response rating,"[12]; postemergence, 0-100 scale",10
same,"Plant response rating, Wheat",[12]; [16],45
same,"Plant response rating, Wheat",[12]; [18],95
same,"Plant response rating, Wheat",[12]; [19],0
same,"Plant response rating, Wheat",[12]; [20],0
same,"Plant response rating, Wheat",[12]; [21],90
same,Wheat plant response rating,"[12]; Preemergence, scale 0 to 100",0
same,Chickweed plant response rating,[13]; [24],0
same,"Plant response rating, Chickweed","[13]; 16 g ai/ha, scale 0 to 100",0
same,"Plant response rating, Chickweed","[13]; 31 g ai/ha, scale 0 to 100, 0 no effect, 100 complete control",0
same,"Plant response rating, Chickweed",[13]; [25],0
same,Windgrass plant response rating,[14]; [24],0
same,"Plant response rating, Windgrass","[14]; 16 g ai/ha, scale 0 to 100",0
same,"Plant response rating, Windgrass",[14]; [25],80
same,Barley plant response rating,[15]; [24],0
same,"Plant response rating, Barley",[15]; 16 g ai/ha,0
same,"Plant response rating, Barley",[15]; 31 g ai/ha,10
same,"Plant response rating, Barley",[15]; 62 g ai/ha,10
